Data taken from ChEMBL document CHEMBL4483862, “Open-source discovery of chemical leads for next-generation chemoprotective antimalarials” (2018).

System: Plasmodium berghei
Assay: Luciferase/luciferin-expressing antifolate-resistant parasites were used to infect a culture of HepG2 cells that were pre-incubated with compounds. Infected hepatocytes emit light due to the luciferase reaction. Assay results are presented as the percent inhibition of light emission compared to control. […]
Type: functional
Conditions: sporozoite; for IC50: read-out: LUCIFERASE INFECTION ASSAY - IC50; for IC90: read-out: LUCIFERASE INFECTION ASSAY - IC90

Compound	IC50 [µM]	IC90 [µM]
CNc1nc2cnc(Nc3cccc(C(C)C)c3)cc2n1Cc1ccco1	> 10	> 10
CNc1nc2cnc(Nc3ccccc3Cl)cc2n1CC1CC1	> 10	> 10
COc1ccc(CNc2nc3cnc(Nc4ccc(F)c(Cl)c4)cc3n2C)cc1OC	> 10	> 10
CNc1nc2cnc(Nc3cccc(C)c3)cc2n1-c1cc(OC)c(OC)c(OC)c1	> 10	> 10
CNc1nc2cnc(Nc3cc(OC)cc(C(F)(F)F)c3)cc2n1Cc1ccco1	> 10	> 10
CCCCc1[nH]nc2ccnc(-c3ccsc3)c12	> 10	> 10
Cn1c(NCc2ccccc2F)nc2cnc(Nc3cccc(OC(F)(F)F)c3)cc21	> 10	> 10
Clc1cccc(-c2cc3[nH]c(NCc4ccccc4)nc3cn2)c1	> 10	> 10
COc1cc(NC(=O)Nc2ccc3nc(-c4ccoc4)nn3c2)cc(OC)c1OC	> 10	> 10
COc1cc(-c2nccc3n[nH]c(-c4cccc(OC(F)(F)F)c4)c23)cc(OC)c1OC	> 10	> 10
Cn1c(Nc2cccc(C(F)(F)F)c2)nc2cnc(-c3ccoc3)cc21	> 10	> 10
Cn1c(NCc2ccccc2)nc2cnc(-c3ccsc3)cc21	> 10	> 10
c1cncc(Cn2cnc3cnc(Nc4cccnc4)cc32)c1	> 10	> 10
COc1cc(Nc2cc3c(cn2)nc(NCc2ccccc2)n3C)cc(C(F)(F)F)c1	> 10	> 10
Cc1[nH]nc2ccnc(-c3cccc(OC(F)(F)F)c3)c12	> 10	> 10
CNc1nc2cnc(Nc3cc(C(F)(F)F)ccc3F)cc2n1Cc1ccccc1	> 10	> 10
CNc1nc2cnc(Nc3cccc(C(C)=O)c3)cc2n1-c1cccc(F)c1	> 10	> 10
O=C(Nc1cccc(C(F)(F)F)c1)Nc1ccc2nc(-c3ccncc3)nn2c1	> 10	> 10
CNc1nc2cnc(Nc3ccccc3)cc2n1-c1cccc(C(F)(F)F)c1	> 10	> 10
COc1cccc(NC(=O)c2cccc(C3(CNCc4ccccc4F)CC3)c2)c1	> 10	> 10
COc1ccc(NC(=O)c2cccc(C3(CNc4ccccc4)CC3)c2)cn1	> 10	> 10

Compound	IC50 [µM]	IC90 [µM]
COc1cc(Nc2nc3cnc(-c4cccnc4)cc3n2C)cc(OC)c1OC	8.65	> 10
Cc1ccc(NC(=O)N2[C@@H]3CC[C@@H](C3)[C@H]2c2nc3cccc(OCc4ccccc4)c3[nH]2)cc1	> 10	> 10
COc1ccc(CNc2nc3cnc(Nc4ccc(OC(F)(F)F)cc4)cc3n2C)cc1OC	> 10	> 10
CCCCc1[nH]nc2ccnc(-c3ccc(OC)c(OC)c3)c12	0.979	1.3
CC(C)c1ccc(NC(=O)Nc2ccc3nc(-c4ccco4)nn3c2)cc1	> 10	> 10
Cn1nc(C(C)(C)C)cc1C(=O)Nc1ccc2nc(-c3cccs3)nn2c1	> 10	> 10
CNc1nc2cnc(Nc3ccc(OC)cc3C)cc2n1-c1cc(OC)c(OC)c(OC)c1	> 10	> 10
CNc1nc2cnc(Nc3ccc(F)c(Cl)c3)cc2n1-c1cccc(C(F)(F)F)c1	> 10	> 10
CNc1nc2cnc(Nc3cccc(N(C)C)c3)cc2n1-c1cc(OC)c(OC)c(OC)c1	> 10	> 10
CN(C)C(=O)c1ccc(Nc2cc3c(cn2)nc(-c2ccco2)n3C)cc1	> 10	> 10
CNc1nc2cnc(Nc3cccc(N(C)C)c3)cc2n1-c1cccc(C(F)(F)F)c1	> 10	> 10
Cn1c(NCc2ccccc2F)nc2cnc(-c3ccc(Cl)cc3)cc21	> 10	> 10
O=C(NCC1CC1)c1cccc(C2(CNCCCN3CCOCC3)CC2)c1	> 10	> 10
CNc1nc2cnc(-c3ccc(O)c(OC)c3)cc2n1Cc1ccccc1	3.17	3.99
COc1ccc(CNC(=O)c2ccc(C3(CNc4cccc(OC)c4)CC3)cc2)cc1	> 10	> 10
CNc1nc2cnc(Nc3ccc(Oc4ccccc4)cc3)cc2n1C	> 10	> 10
CN(C)c1ccc(-c2cc3c(cn2)nc(NCc2ccccc2)n3C)cc1	> 10	> 10
FC(F)(F)Oc1cccc(-c2[nH]nc3ccnc(-c4ccsc4)c23)c1	> 10	> 10
COc1ccc(OC)c(CCNc2nc3cnc(-c4cccc(NS(C)(=O)=O)c4)cc3n2C)c1	> 10	> 10
O=C(NCc1ccccc1)c1cccc(C2(CNc3cccc(OC(F)(F)F)c3)CC2)c1	> 10	> 10
Cn1c(Cc2ccccc2)nc2cnc(Nc3cccc(C(F)(F)F)c3)cc21	> 10	> 10

Compound	IC50 [µM]	IC90 [µM]
Cn1c(Nc2ccccc2)nc2cnc(-c3ccc(N4CCOCC4)cc3)cc21	9.31	> 10
COc1ccc(OC)c(CCNc2nc3cnc(-c4cccc(Oc5ccccc5)c4)cc3n2C)c1	0.52	1.51
O=C(NCC1CC1)c1cccc(C2(CNCc3ccc(F)c(Cl)c3)CC2)c1	> 10	> 10
COc1cc(-c2cc3c(cn2)nc(NCc2cccc(C)c2)n3C)ccc1O	> 10	> 10
CNc1nc2cnc(Nc3cccc(N(C)C)c3)cc2n1-c1ccccc1	> 10	> 10
Cn1c(Nc2ccccc2)nc2cnc(-c3ccc4c(c3)OCO4)cc21	> 10	> 10
COc1cc(-c2cc3c(cn2)nc(NCc2cccc(C)c2)n3C)cc(OC)c1OC	8.23	> 10
Cn1c(NCC2CCCO2)nc2cnc(-c3cccc(Oc4ccccc4)c3)cc21 (centres undefined)	> 10	> 10
Cn1c(NCC2CC2)nc2cnc(-c3cccc(Oc4ccccc4)c3)cc21	5.67	> 10
CN(C)c1ccc(-c2nccc3n[nH]c(-c4cccc(OC(F)(F)F)c4)c23)cc1	> 10	> 10
CNc1nc2cnc(-c3ccccc3C)cc2n1-c1cccc(F)c1	> 10	> 10
COc1cc(-c2[nH]nc3ccnc(-c4cccc(OC(F)(F)F)c4)c23)cc(OC)c1OC	> 10	> 10
CNc1nc2cnc(-c3cccc(Oc4ccccc4)c3)cc2n1Cc1cccnc1	> 10	> 10
COCCn1cnc2cnc(Nc3cccc(F)c3)cc21	> 10	> 10
Cn1c(NCc2ccccc2)nc2cnc(Nc3ccc(F)cc3)cc21	> 10	> 10
COc1ncccc1-c1cc2c(cn1)nc(NCc1cccc(C)c1)n2C	> 10	> 10
Cc1cccc(CNc2nc3cnc(-c4ccccc4)cc3n2C)c1	> 10	> 10
COc1cc(-n2cnc3cnc(Nc4cccc(C(F)(F)F)c4)cc32)cc(OC)c1OC	> 10	> 10
CNc1nc2cnc(Nc3ccc(SC)cc3)cc2n1Cc1ccc(OC)c(OC)c1	> 10	> 10
COc1cccc(-c2nccc3n[nH]c(-c4ccc(OC)cc4C)c23)c1	4.5	> 10
